The record followed here is ChEMBL document CHEMBL6087399, “Extended structure-activity relationship studies of the [1,2,5]oxadiazolo[3,4-b]pyrazine-containing colistin adjuvants” (Bioorg Med Chem Lett, 2025).

Series [1] concerns Escherichia coli. Description: Synergistic antibacterial activity against Escherichia coli AR-0493 assessed as fractional inhibitory concentration index in presence of colistin by Checkerboard broth microdilution assay. The class given is functional.
In series [2] the test system is Escherichia coli. Description: Potentiation of colistin-induced antibacterial activity against Escherichia coli AR-0493 harboring mcr-1 gene assessed as colistin MIC at 1 ug/ml. The format is functional. The conditions noted are these: dose 1 µg/ml.
A short description of series [3]: Cytotoxicity against human HepG2 cells by Cell Titer Glo assay. The format is toxicity, cell-based.
Series [4] has as its system Acinetobacter baumannii. Description: Potentiation of colistin-induced antibacterial activity against Acinetobacter baumannii AR-0310 assessed as colistin MIC at 1 ug/ml. The class given is functional. The conditions noted are these: dose 1 µg/ml.
Series [5] concerns Escherichia coli. Description: Potentiation of colistin-induced antibacterial activity against Escherichia coli AR-0493 assessed as minimum re-sensitizing concentration. The class given is functional. The conditions noted are these: read-out: MEC.
Series [6] relates to Pseudomonas aeruginosa. Description: Potentiation of colistin-induced antibacterial activity against Pseudomonas aeruginosa AR-0239 assessed as colistin MIC at 1 ug/ml. The format is functional. The conditions noted are these: dose 1 µg/ml.
Series [7] deals with Escherichia coli. Description: Antibacterial activity against Escherichia coli AR-0493 by CLSI based susceptibility testing method. The class given is functional.
The subject of series [8] is Escherichia coli. Description: Potentiation of colistin-induced antibacterial activity against Escherichia coli AR-0538 harboring mcr-2 gene assessed as colistin MIC at 1 ug/ml. The format is functional. The conditions noted are these: dose 1 µg/ml.
For series [9], the system named is Salmonella typhimurium. Description: Potentiation of colistin-induced antibacterial activity against Salmonella typhimurium AR-0539 harboring mcr-3 gene assessed as colistin MIC at 1 ug/ml. The class given is functional, Salmonella enterica subsp. enterica serovar Typhimurium. The conditions noted are these: Salmonella enterica, dose 1 µg/ml.
The test system of series [10] is Salmonella typhimurium. Description: Potentiation of colistin-induced antibacterial activity against Salmonella typhimurium AR-0635 harboring mcr-4 gene assessed as colistin MIC at 1 ug/ml. The format is functional, Salmonella enterica subsp. enterica serovar Typhimurium. The conditions noted are these: Salmonella enterica, dose 1 µg/ml.
Series [11] concerns Klebsiella pneumoniae. Description: Potentiation of colistin-induced antibacterial activity against Klebsiella pneumoniae AR-0497 harboring mcr-1 gene assessed as colistin MIC at 1 ug/ml. The class given is functional. To be noted: dose 1 µg/ml.
The nature of series [12]: Selectivity index, ratio of GI50 for cytotoxicity against human HepG2 cells to MEC for potentiation of colistin-induced antibacterial activity against Escherichia coli AR-0493 assessed as minimum re-sensitizing concentration. The class given is toxicity, cell-based. To be noted: read-out: Selectivity Index.
Series [13] has as its system Escherichia coli. Description: Antibacterial activity against Escherichia coli AR-0538 harboring mcr-2 gene. The class given is functional.
In series [14] the test system is Klebsiella pneumoniae. Description: Antibacterial activity against Klebsiella pneumoniae AR-0497 harboring mcr-1 gene. The format is functional.
In series [15] the test system is Acinetobacter baumannii. Description: Antibacterial activity against Acinetobacter baumannii AR-0310. The format is functional.
The test system of series [16] is Pseudomonas aeruginosa. Description: Antibacterial activity against Pseudomonas aeruginosa AR-0239. The class given is functional.
Series [17] concerns Salmonella typhimurium. Description: Antibacterial activity against Salmonella typhimurium AR-0539 harboring mcr-3 gene. The class given is functional, Salmonella enterica subsp. enterica serovar Typhimurium. To be noted: Salmonella enterica.
For series [18], the system named is Salmonella typhimurium. Description: Antibacterial activity against Salmonella typhimurium AR-0635 harboring mcr-4 gene. The class given is functional, Salmonella enterica subsp. enterica serovar Typhimurium. To be noted: Salmonella enterica.
Series [19] relates to Escherichia coli. Description: Antibacterial activity against Escherichia coli AR-0493 harboring mcr-1 gene. The class given is functional.

SMILES strings stand for the structures. Converted amounts (≈) assume the structure as drawn. Where a SMILES comes first, the peptide text is derived from it.

On to `FC(F)(F)c1nc(NCCCNc2nc3nonc3nc2Nc2cccc(Cl)c2)ccc1Cl`, for which the “fractional inhibitory concentration index (FICI)” value in the series with Escherichia coli [1] is listed as 0.039. Also, the MIC in the series on Escherichia coli [2] was 0.5 µg/mL; with Acinetobacter baumannii [4] it was 0.25 µg/mL; in the series on Pseudomonas aeruginosa [6], 1 µg/mL; in the series on Escherichia coli [7], greater than 64 µg/mL; with Escherichia coli [8] it was 1 µg/mL; with Salmonella typhimurium [9], 0.5 µg/mL. Also, the MIC in the series on Salmonella typhimurium [10] and in the series on Klebsiella pneumoniae [11] was 1 µg/mL each time. In series [3], this compound had a GI50 of 8.7 µg/mL (≈ 17.4 µM). Also, the minimal effective concentration with Escherichia coli [5] came out at 0.25 µg/mL. For the same compound, in series [12], the selectivity ratio was found to be 35.
As to `Clc1ccc(CNc2nc3nonc3nc2NCc2ccc(Cl)cc2)cc1`, in the series on Escherichia coli [1], the “fractional inhibitory concentration index (FICI)” value is listed as 0.07. In addition, the MIC was 0.5 µg/mL with Escherichia coli [2]; 0.5 µg/mL in the series on Acinetobacter baumannii [4]; 1 µg/mL in the series with Pseudomonas aeruginosa [6]; greater than 64 µg/mL with Escherichia coli [7]; 1 µg/mL in the series on Escherichia coli [8]; 1 µg/mL with Salmonella typhimurium [9]. Further, the MIC in the series on Salmonella typhimurium [10] and with Klebsiella pneumoniae [11] was 2 µg/mL each time. In [3], this compound displayed a GI50 of 4.5 µg/mL (≈ 11.2 µM). The minimal effective concentration in the series on Escherichia coli [5] was determined as 0.125 µg/mL. Besides, the selectivity ratio in series [12] was 36.
As for `Clc1cccc(Nc2nc3nonc3nc2Nc2cccc(Cl)c2)c1`, the MIC in the series with Escherichia coli [2] came out at 1 µg/mL; in the series on Acinetobacter baumannii [4], 0.25 µg/mL; with Pseudomonas aeruginosa [6], 1 µg/mL; in the series on Escherichia coli [8], 1 µg/mL; in the series on Salmonella typhimurium [9] it was 1 µg/mL; with Salmonella typhimurium [10], 1 µg/mL. Also, the MIC in the series with Klebsiella pneumoniae [11] amounted to 1 µg/mL.
For the compound `[H][C@@]1([C@@H](C)O)NC(=O)[C@H](CCN)NC(=O)[C@H](CCN)NC(=O)[C@H](CC(C)C)NC(=O)[C@@H](CC(C)C)NC(=O)[C@H](CCN)NC(=O)[C@@H](NC(=O)[C@H](CCN)NC[C@H](NC(=O)[C@H](CCN)NC(=O)CCCCC(C)C)[C@@H](C)O)CCNC1=O.[H][C@@]1([C@@H](C)O)NC(=O)[C@H](CCN)NC(=O)[C@H](CCN)NC(=O)[C@H](CC(C)C)NC(=O)[C@@H](CC(C)C)NC(=O)[C@H](CCN)NC(=O)[C@@H](NC(=O)[C@H](CCN)NC[C@H](NC(=O)[C@H](CCN)NC(=O)CCCCC(C)CC)[C@@H](C)O)CCNC1=O` (stereo partly drawn) (HELM PEPTIDE1{[C[C@@H](O)[C@H](CN[C@@H](CCN)C(=O)[*:2])N[*:3]].[Dab].[Dab].[dL].L.[Dab].[Dab].T}|PEPTIDE2{[CCC(C)CCCCC(=O)[*:2]].[Dab]}$PEPTIDE1,PEPTIDE2,1:R3-2:R2|PEPTIDE1,PEPTIDE1,2:R3-8:R2$$$V2.0), the MIC against Escherichia coli [13] came to 8 µg/mL; with Klebsiella pneumoniae [14], 16 µg/mL; in the series on Acinetobacter baumannii [15], 8 µg/mL; in the series with Pseudomonas aeruginosa [16] it was 4 µg/mL; against Salmonella typhimurium [17], 8 µg/mL; with Salmonella typhimurium [18], 16 µg/mL. In the series on Escherichia coli [19], this compound showed an MIC of 8 µg/mL.
